Article PMC8175240, “Integrase-derived peptides together with CD24-targeted lentiviral particles inhibit the growth of CD24 expressing cancer cells” (Oncogene, 2021)
Converted amounts (≈) assume the structure as drawn. Residues, ends and D or L forms follow the SMILES beside them.

Key:
[1] = system: CHO-WBL cells; assay: Chromosomal aberration assay (genotoxicity); type: cell-based, Chinese hamster; conditions: CP 2.5, +S9, 3 h treatment, harvest 22 h
Method: All cells were cultured for 22 h after initiation of INS treatment.

[2] = Solubility of IN-derived peptides in PBS; type: physicochemical; conditions: for Solubility: at 0 min, verified at 60 min, LC-MS
Method: (§1) Analytic HPLC-MS was performed using an Agilent 1260 series Liquid Chromatography/Mass Selective Detector (MSD) equipped with an electrospray interface and a UV diode array detector. Analyses were performed on an ACE C8, 50 × 3.0 mm, 3 µm column, with an isocratic 0.1% formic acid/ACN eluent, at a rate of 1 ml/min over a period of 5 min. UV absorption was measured at 280 nm, 220 nm, and 215–395 nm. MS analysis was performed with ESI (electron spray ionization) with a positive ionization method.
(§2) Four reaction systems were prepared; INS and INR2 in human plasma, INS and INR2 in rat plasma (Supplementary Table 2). Freshly prepared 10 mg/ml stock solution of the peptides was injected into plasma or PBS solution (1:1). The mixture was diluted with methanol to precipitate the plasma proteins. The samples were filtered through PTFE 0.45 µm filters and run in LC-MS. Samples were taken at the following times: 0, 15, 30, 60, 120, 240, and 480 min and after 24 h.
(§3) Plasma solubility was determined at 0 min and was verified at 60 min (if no degradation was observed).

[3] = Solubility of IN-derived peptides in rat plasma; type: physicochemical; conditions: LC-MS
Method: as §1, §2, §3

[4] = Solubility of IN-derived peptides in human plasma; type: physicochemical; conditions: LC-MS
Method: as §1, §2, §3

[5] = Stability test in human plasma; type: in vitro ADME; conditions: for Analyte Remaining % / Concentration calculated from LC-MS data: human plasma, 10 mg/ml stock into plasma 1:1, LC-MS; for Concentration calculated from LC-MS data: methanol precipitation, 0.45 µm filtration
Method: as §1, §2

[6] = Stability test in rat plasma; type: in vitro ADME; conditions: for Analyte Remaining %: 10 mg/ml stock into plasma 1:1, LC-MS; for Concentration calculated from LC-MS data: 10 mg/ml stock into plasma 1:1, methanol precipitation, 0.45 µm filtration
Method: as §1, §2

[7] = system: H1975 lung cancer cells; assay: Cytotoxicity of peptides without lentiviral particles, MTT; type: cell-based, human; conditions: peptide alone, three times over ten days
Method: H1975 lung cancer cells were treated three times over the course of 10 days (on days 2, 4, and 7) with different concentrations of the tested peptides. Following ten days of incubation, cells were analyzed for potential toxicity using a quantitative cell viability test, the MTT assay.

[8] = system: H1975 cells; assay: Cell survival after CD24-targeted lentivirus plus peptide, MTT; type: cell-based, human; conditions: Raltegravir added to LV-CD24 plus INS or INR2
Method: (§4) The cell-killing effect of the system was measured by the MTT3-(4,5-dimethylthiazol-2-yl)-2,5-diphenyltetrazoliumenzymatic assay or by 2-(4-iodophenyl)-3-(4-nitrophenyl)-5-(2,4-disulfophenyl)-2H-tetrazolium (WST-1) assay. Two thousand cultured cells were seeded onto 96-well plates (in culture media, DMEM, or RPMI). After 24 h, different concentrations of the diverse peptides (and inhibitors) were added for 3 h. Thirty MOI of the targeted lentiviral particles were added to the cells and the plates centrifuged for 90 min at 800×g, 20 °C. Three and six days later, this procedure (peptides/inhibitor and LV treatments) was repeated. On the tenth day, cell viability was analyzed either by MTT or by WST-1; the media was replaced by fresh media (100 μl per well) containing 1 mg/ml MTT, and the cells were incubated for 2–4 more hours. MTT-formazan crystals were dissolved by the addition of extraction solution (0.1 N HCl in absolute isopropanol). Absorbance at 570 nm and a reference wavelength of 690 nm was recorded on an automated microplate reader. For WST-1, media was replaced and WST-1 was added directly to the culture wells followed by incubation of 10–60 min at 37 °C. Plates were read by an automated microplate reader by measuring the absorbance of the dye with a wavelength of 450 nm and a reference wavelength of 630 nm.

[9] = system: Panc-1 cells; assay: Cell survival after CD24-targeted lentivirus plus peptide, WST-1; type: cell-based, human; conditions: Raltegravir added to LV-CD24 plus INS or INR2
Method: as §4

[10] = system: H1975 lung cancer cells; assay: Microscopic observation of GFP incorporation; type: cell-based, human; conditions: 30 MOI LV-CD24 and 25 µM INS with 50 µM Raltegravir; 24 h post-treatment
Method: Fig. 2 The effect of IN-derived peptides on cell survival. A Schematic illustration of the treatment protocol. B Microscopic observation of the GFP incorporation inhibition by Raltegravir. H1975 lung cancer cells were exposed to 30 MOI LV-CD24 and 25 µM INS with or without the addition of 50 µM Raltegravir. Images were taken 24 h post-treatment. C 2000 Panc-1 (left) and H1975 (right) cells were seeded in 96-well plates and were treated with the different items as described. Cell survival was measured by the enzymatic WST-1 (left) and MTT assays (right). % Survival was calculated as the percentage of living cells remaining after treatment with respect to non-treated cells.

[11] = system: CD24 expressing cancer cells; type: cell-based, human; conditions: abstract
[12] = from 5 mg/mL sample (10 mg/ml stock into plasma 1:1), at 0 min, verified at 60 min, methanol precipitation, PTFE 0.45 µm filtration

Compound: O=P1(N(CCCl)CCCl)NCCCO1 (stereo not shown) [CP, cyclophosphamide monohydrate, reference compound]
- % Gaps [1]: 4.0%
- % Structural aberration without gaps [1]: 47.0%
- Cells with endoreduplication (%) [1]: 3.0%
- Cells with polyploidy (%) [1]: 0.0%
- Cytotoxicity (%) ([1]; cell growth inhibition relative to negative control): 50%
- % Structural aberrant cells ([1]; cells with only gaps not included, *p ≤ 0.05 Fisher's Exact test): 35.0* %

Compound: CC(C)[C@H](NC(=O)[C@@H](NC(=O)[C@@H](NC(=O)[C@H](CO)NC(=O)[C@@H](NC(=O)[C@H](Cc1ccccc1)NC(=O)[C@H](CC(N)=O)NC(=O)[C@H](CO)NC(=O)CNC(=O)[C@@H](N)Cc1c[nH]c2ccccc12)[C@@H](C)O)[C@@H](C)O)[C@@H](C)O)C(=O)N[C@@H](CCCCN)C(=O)N[C@@H](C)C(=O)O [INR] (H-WGSNFTSTTVKA-OH)
- Solubility ([2]; % of 5 mg/mL sample): 66.2%
- Solubility ([2]; from 5 mg/mL sample (10 mg/ml stock into PBS 1:1), methanol dilution, PTFE 0.45 µm filtration): 3.31 mg/mL (≈ 2550 µM)
- Solubility (in words) ([2]; rat and human plasma): highly soluble
- Solubility ([3]; % of 5 mg/mL sample): 42.6%
- Solubility [3, 12]: 2.13 mg/mL (≈ 1640 µM)
- Solubility ([4]; % of 5 mg/mL sample): 44.2%
- Solubility [4, 12]: 2.21 mg/mL (≈ 1700 µM)
- Stability ([5]; both types of sera (rat and human plasma), for the entire 24 h): 40%
- Analyte Remaining % ([5]; 0 h): 40.9%
- Concentration calculated from LC-MS data ([5]; 0 h): 2050 µg/mL
- Analyte Remaining % ([5]; 0.25 h): 40.3%
- Concentration calculated from LC-MS data ([5]; 0.25 h): 2020 µg/mL
- Analyte Remaining % ([5]; 0.5 h): 45.3%
- Concentration calculated from LC-MS data ([5]; 0.5 h): 2270 µg/mL
- Analyte Remaining % ([5]; 1 h): 47.3%
- Concentration calculated from LC-MS data ([5]; 1 h): 2370 µg/mL
- Analyte Remaining % ([5]; 2 h): 39.2%
- Concentration calculated from LC-MS data ([5]; 2 h): 1960 µg/mL
- Analyte Remaining % ([5]; 4 h): 41.2%
- Concentration calculated from LC-MS data ([5]; 4 h): 2060 µg/mL
- Analyte Remaining % ([5]; 8 h): 38.3%
- Concentration calculated from LC-MS data ([5]; 8 h): 1910 µg/mL
- Analyte Remaining % ([5]; 24 h): 38.9%
- Concentration calculated from LC-MS data ([5]; 24 h): 1950 µg/mL
- Stability ([5]; rat and human plasma, ~4 h incubation): 40%
- Analyte Remaining % ([6]; 0 h): 41.8%
- Concentration calculated from LC-MS data ([6]; 0 h): 2090 µg/mL
- Analyte Remaining % ([6]; 0.25 h): 51.1%
- Concentration calculated from LC-MS data ([6]; 0.25 h): 2560 µg/mL
- Analyte Remaining % ([6]; 0.5 h): 34.3%
- Concentration calculated from LC-MS data ([6]; 0.5 h): 1710 µg/mL
- Analyte Remaining % ([6]; 1 h): 43.5%
- Concentration calculated from LC-MS data ([6]; 1 h): 2170 µg/mL
- Analyte Remaining % ([6]; 2 h): 43.6%
- Concentration calculated from LC-MS data ([6]; 2 h): 2180 µg/mL
- Analyte Remaining % ([6]; 4 h): 38.2%
- Concentration calculated from LC-MS data ([6]; 4 h): 1910 µg/mL
- Analyte Remaining % ([6]; 8 h): 35.3%
- Concentration calculated from LC-MS data ([6]; 8 h): 1760 µg/mL
- Analyte Remaining % ([6]; 24 h): 36.9%
- Concentration calculated from LC-MS data ([6]; 24 h): 1840 µg/mL
- Effect on lung cancer cell viability [7]: no effect

Compound: Cc1nnc(C(=O)NC(C)(C)c2nc(C(=O)NCc3ccc(F)cc3)c(O)c(=O)n2C)o1 [Raltegravir]
- Effect on cell death induced by LV plus peptide [8]: successfully suppressed the observed cell death
- Effect on cell death induced by LV plus peptide [9]: successfully suppressed the observed cell death
- Effect on GFP fluorescence of INS-treated cells [10]: nearly eliminated
- Effect on induction of apoptosis [11]: inhibited the induction of apoptosis
